How the values were obtained:
Assay in all cases: relative viability (nuclei count vs DMSO), 5 days (fraction); higher = more cells survive
ChaGo-K-1 = tested on: ChaGo-K-1
Summary of the method: (§1)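 Relative viability divides the nuclei count in treated wells by that in vehicle wells. Lung cancer cell lines were seeded in 1536-well plates, dosed by pin tool the next day, and fixed and stained after 5 days in one step with final 0.05% Triton X-100, 1% formaldehyde and 1 ug/ml Hoechst. Dosing was a single drug or a fixed anchor-drug dose plus five library-drug doses (not always all listed) in √10 steps, and values are medians of duplicate plates imaged at 4×.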

NCI-H1792 = tested on: NCI-H1792
Summary of the method: as §1

NCI-H322M = tested on: NCI-H322M
Summary of the method: as §1

NCI-H1755 = tested on: NCI-H1755
Summary of the method: as §1

HCC-827 = tested on: HCC-827
Summary of the method: as §1

HCC-44 = tested on: HCC-44
Summary of the method: as §1

LXF-289 = tested on: LXF-289
Summary of the method: as §1

NCI-H3122 = tested on: NCI-H3122
Summary of the method: as §1

ABC-1 = tested on: ABC-1
Summary of the method: as §1

NCI-H1666 = tested on: NCI-H1666
Summary of the method: as §1

NCI-H520 = tested on: NCI-H520
Summary of the method: as §1

LU99A = tested on: LU99A
Summary of the method: as §1

NCI-H2347 = tested on: NCI-H2347
Summary of the method: as §1

NCI-H2126 = tested on: NCI-H2126
Summary of the method: as §1

LCLC-103H = tested on: LCLC-103H
Summary of the method: as §1

SK-LU-1 = tested on: SK-LU-1
Summary of the method: as §1

CAL-12T = tested on: CAL-12T
Summary of the method: as §1

RERF-LC-KJ = tested on: RERF-LC-KJ
Summary of the method: as §1

For Cc1cn(-c2cc(NC(=O)c3ccc(C)c(Nc4nccc(-c5cccnc5)n4)c3)cc(C(F)(F)F)c2)cn1 [Nilotinib] + CC(C)C[C@H](NC(=O)[C@H](Cc1ccccc1)NC(=O)c1cnccn1)B(O)O [Bortezomib] (partner 0.002 µM), the relative viability (ChaGo-K-1; first compound 0.001 µM) was 1.44, the relative viability (ChaGo-K-1; first compound 0.003162 µM) was 1.05 and the relative viability (ChaGo-K-1; first compound 0.01 µM) was 1.14. The relative viability (ChaGo-K-1; first compound 0.03162 µM) was 0.639, the relative viability (ChaGo-K-1; first compound 0.1 µM) was 0.898 and the relative viability (NCI-H1792; first compound 0.001 µM) was 0.94. It also gave a relative viability (NCI-H1792; first compound 0.01 µM) of 1.2, a relative viability (NCI-H1792; first compound 0.1 µM) of 1.23 and a relative viability (NCI-H322M; first compound 0.001 µM) of 1.27. The relative viability (NCI-H322M; first compound 0.003162 µM) was 1.47, the relative viability (NCI-H322M; first compound 0.03162 µM) was 1.18 and the relative viability (NCI-H322M; first compound 0.1 µM) was 1.39. For the same molecule, the relative viability (NCI-H1755; first compound 0.001 µM) was 1, the relative viability (NCI-H1755; first compound 0.003162 µM) was 1.16 and the relative viability (NCI-H1755; first compound 0.01 µM) was 1.15. It also gave a relative viability (NCI-H1755; first compound 0.03162 µM) of 0.81, a relative viability (NCI-H1755; first compound 0.1 µM) of 0.929 and a relative viability (HCC-827; first compound 0.003162 µM) of 1.19. For the same molecule, the relative viability (HCC-827; first compound 0.01 µM) was 1.08, the relative viability (HCC-827; first compound 0.03162 µM) was 1.07 and the relative viability (HCC-827; first compound 0.1 µM) was 1.06. It also gave a relative viability (HCC-44; first compound 0.001 µM) of 0.885, a relative viability (HCC-44; first compound 0.003162 µM) of 0.968 and a relative viability (HCC-44; first compound 0.01 µM) of 0.853. For the same molecule, the relative viability (HCC-44; first compound 0.03162 µM) was 0.871, the relative viability (HCC-44; first compound 0.1 µM) was 0.873 and the relative viability (LXF-289; first compound 0.001 µM) was 0.977. It also gave a relative viability (LXF-289; first compound 0.003162 µM) of 1.22, a relative viability (LXF-289; first compound 0.01 µM) of 1.11 and a relative viability (LXF-289; first compound 0.03162 µM) of 0.977. For the same molecule, the relative viability (LXF-289; first compound 0.1 µM) was 0.692, the relative viability (NCI-H3122; first compound 0.003162 µM) was 1.05 and the relative viability (NCI-H3122; first compound 0.03162 µM) was 1.03. It also gave a relative viability (NCI-H3122; first compound 0.1 µM) of 0.962, a relative viability (ABC-1; first compound 0.001 µM) of 0.291 and a relative viability (ABC-1; first compound 0.003162 µM) of 0.275. It also gave a relative viability (ABC-1; first compound 0.01 µM) of 0.23, a relative viability (ABC-1; first compound 0.03162 µM) of 0.28 and a relative viability (NCI-H1666; first compound 0.001 µM) of 0.774. It also gave a relative viability (NCI-H1666; first compound 0.01 µM) of 0.649, a relative viability (NCI-H1666; first compound 0.03162 µM) of 0.985 and a relative viability (NCI-H1666; first compound 0.1 µM) of 0.829. It also gave a relative viability (NCI-H520; first compound 0.001 µM) of 0.591, a relative viability (NCI-H520; first compound 0.01 µM) of 0.776 and a relative viability (NCI-H520; first compound 0.03162 µM) of 0.526. It also gave a relative viability (NCI-H520; first compound 0.1 µM) of 0.34, a relative viability (LU99A; first compound 0.001 µM) of 0.891 and a relative viability (LU99A; first compound 0.003162 µM) of 1.1. It also gave a relative viability (LU99A; first compound 0.01 µM) of 1.39, a relative viability (LU99A; first compound 0.03162 µM) of 1.19 and a relative viability (LU99A; first compound 0.1 µM) of 0.371. The relative viability (NCI-H2347; first compound 0.001 µM) was 0.8, the relative viability (NCI-H2347; first compound 0.003162 µM) was 1.08 and the relative viability (NCI-H2347; first compound 0.01 µM) was 1.17. For the same molecule, the relative viability (NCI-H2347; first compound 0.03162 µM) was 0.702, the relative viability (NCI-H2347; first compound 0.1 µM) was 0.865 and the relative viability (NCI-H2126; first compound 0.001 µM) was 1.12. The relative viability (NCI-H2126; first compound 0.003162 µM) was 1.18, the relative viability (NCI-H2126; first compound 0.01 µM) was 1.08 and the relative viability (NCI-H2126; first compound 0.03162 µM) was 1.08. For the same molecule, the relative viability (NCI-H2126; first compound 0.1 µM) was 0.624, the relative viability (LCLC-103H; first compound 0.001 µM) was 1.08 and the relative viability (LCLC-103H; first compound 0.003162 µM) was 1.29. The relative viability (LCLC-103H; first compound 0.03162 µM) was 1.15, the relative viability (LCLC-103H; first compound 0.1 µM) was 0.909 and the relative viability (SK-LU-1; first compound 0.001 µM) was 1.29. It also gave a relative viability (SK-LU-1; first compound 0.01 µM) of 0.831, a relative viability (SK-LU-1; first compound 0.03162 µM) of 1 and a relative viability (SK-LU-1; first compound 0.1 µM) of 0.949. It also gave a relative viability (CAL-12T; first compound 0.001 µM) of 0.968, a relative viability (CAL-12T; first compound 0.01 µM) of 0.919 and a relative viability (CAL-12T; first compound 0.03162 µM) of 0.807. It also gave a relative viability (CAL-12T; first compound 0.1 µM) of 1.19, a relative viability (RERF-LC-KJ; first compound 0.001 µM) of 1.12 and a relative viability (RERF-LC-KJ; first compound 0.003162 µM) of 1.14. For the same molecule, the relative viability (RERF-LC-KJ; first compound 0.01 µM) was 1.22, the relative viability (RERF-LC-KJ; first compound 0.03162 µM) was 1.05 and the relative viability (RERF-LC-KJ; first compound 0.1 µM) was 1.02.
Nc1cccc2c1CN(C1CCC(=O)NC1=O)C2=O (stereo not drawn) [Lenalidomide] + CC(C)C[C@H](NC(=O)[C@H](Cc1ccccc1)NC(=O)c1cnccn1)B(O)O [Bortezomib] (partner 0.002 µM) gave a relative viability (ChaGo-K-1; first compound 0.253 µM) of 1.07, a relative viability (ChaGo-K-1; first compound 2.53 µM) of 1 and a relative viability (ChaGo-K-1; first compound 8 µM) of 1.29. For the same molecule, the relative viability (NCI-H1792; first compound 0.253 µM) was 1, the relative viability (NCI-H1792; first compound 0.8 µM) was 0.773 and the relative viability (NCI-H1792; first compound 2.53 µM) was 0.96. The relative viability (NCI-H1792; first compound 8 µM) was 0.964, the relative viability (NCI-H322M; first compound 0.253 µM) was 1.18 and the relative viability (NCI-H322M; first compound 0.8 µM) was 1.21. For the same molecule, the relative viability (NCI-H322M; first compound 2.53 µM) was 1.31, the relative viability (NCI-H322M; first compound 8 µM) was 1.17 and the relative viability (NCI-H1755; first compound 0.253 µM) was 0.855. For the same molecule, the relative viability (NCI-H1755; first compound 0.8 µM) was 0.854, the relative viability (NCI-H1755; first compound 2.53 µM) was 0.947 and the relative viability (NCI-H1755; first compound 8 µM) was 0.913. It also gave a relative viability (HCC-827; first compound 0.253 µM) of 1.09, a relative viability (HCC-827; first compound 0.8 µM) of 0.798 and a relative viability (HCC-827; first compound 2.53 µM) of 1.09. The relative viability (HCC-827; first compound 8 µM) was 1.04, the relative viability (HCC-44; first compound 0.253 µM) was 0.904 and the relative viability (HCC-44; first compound 0.8 µM) was 0.701. For the same molecule, the relative viability (HCC-44; first compound 2.53 µM) was 0.912, the relative viability (HCC-44; first compound 8 µM) was 0.832 and the relative viability (LXF-289; first compound 0.253 µM) was 0.958. The relative viability (LXF-289; first compound 0.8 µM) was 0.98, the relative viability (LXF-289; first compound 2.53 µM) was 1.07 and the relative viability (LXF-289; first compound 8 µM) was 1.08. For the same molecule, the relative viability (NCI-H3122; first compound 0.253 µM) was 1.04, the relative viability (NCI-H3122; first compound 0.8 µM) was 1.05 and the relative viability (NCI-H3122; first compound 2.53 µM) was 0.98. The relative viability (NCI-H3122; first compound 8 µM) was 1.13, the relative viability (ABC-1; first compound 0.253 µM) was 0.302 and the relative viability (ABC-1; first compound 0.8 µM) was 0.297. It also gave a relative viability (ABC-1; first compound 2.53 µM) of 0.278, a relative viability (ABC-1; first compound 8 µM) of 0.285 and a relative viability (NCI-H1666; first compound 0.253 µM) of 0.816. The relative viability (NCI-H1666; first compound 0.8 µM) was 0.544, the relative viability (NCI-H1666; first compound 2.53 µM) was 0.813 and the relative viability (NCI-H1666; first compound 8 µM) was 0.762. The relative viability (NCI-H520; first compound 0.253 µM) was 0.529, the relative viability (NCI-H520; first compound 0.8 µM) was 0.933 and the relative viability (NCI-H520; first compound 2.53 µM) was 0.984. The relative viability (NCI-H520; first compound 8 µM) was 0.365, the relative viability (LU99A; first compound 0.253 µM) was 1.06 and the relative viability (LU99A; first compound 0.8 µM) was 1.11. It also gave a relative viability (LU99A; first compound 2.53 µM) of 1.05, a relative viability (LU99A; first compound 8 µM) of 0.73 and a relative viability (NCI-H2347; first compound 0.253 µM) of 1.1. For the same molecule, the relative viability (NCI-H2347; first compound 0.8 µM) was 0.904, the relative viability (NCI-H2347; first compound 2.53 µM) was 0.979 and the relative viability (NCI-H2347; first compound 8 µM) was 0.435. For the same molecule, the relative viability (NCI-H2126; first compound 0.253 µM) was 1.17, the relative viability (NCI-H2126; first compound 0.8 µM) was 0.971 and the relative viability (NCI-H2126; first compound 2.53 µM) was 1.12. For the same molecule, the relative viability (NCI-H2126; first compound 8 µM) was 1.1, the relative viability (LCLC-103H; first compound 0.253 µM) was 1.01 and the relative viability (LCLC-103H; first compound 0.8 µM) was 0.966. For the same molecule, the relative viability (LCLC-103H; first compound 2.53 µM) was 1.01, the relative viability (LCLC-103H; first compound 8 µM) was 0.869 and the relative viability (SK-LU-1; first compound 0.253 µM) was 1.31. The relative viability (SK-LU-1; first compound 0.8 µM) was 1.38, the relative viability (SK-LU-1; first compound 2.53 µM) was 1.25 and the relative viability (SK-LU-1; first compound 8 µM) was 0.862. It also gave a relative viability (CAL-12T; first compound 0.253 µM) of 0.988, a relative viability (CAL-12T; first compound 2.53 µM) of 1.14 and a relative viability (CAL-12T; first compound 8 µM) of 0.965. For the same molecule, the relative viability (RERF-LC-KJ; first compound 0.253 µM) was 1.13, the relative viability (RERF-LC-KJ; first compound 0.8 µM) was 0.934 and the relative viability (RERF-LC-KJ; first compound 2.53 µM) was 1.09. For the same molecule, the relative viability (RERF-LC-KJ; first compound 8 µM) was 0.974.

From the supplement of paper PMC10307832
